According to ChEMBL document CHEMBL4270560, “Novel curcumin analogue hybrids: Synthesis and anticancer activity” (Eur J Med Chem, 2018):

Legend:
SMMC-7721 = assay: Antiproliferative activity against human SMMC7721 cells after 48 hrs by MTT assay; assay type: functional, cell-based; settings: SMMC-7721, 48 h
MGC-803 = assay: Antiproliferative activity against human MGC803 cells after 48 hrs by MTT assay; assay type: functional, cell-based; settings: MGC-803, 48 h
SGC-7901 [1] = assay: Cell cycle arrest in human SGC7901 cells assessed as accumulation at G1 phase at 1000 nM after 48 hrs by propidium iodide staining based flow cytometric analysis (reference value: 47.93%); assay type: functional
SGC-7901 [2] = assay: Cell cycle arrest in human SGC7901 cells assessed as accumulation at G1 phase at 800 nM after 48 hrs by propidium iodide staining based flow cytometric analysis (reference value: 47.93%); assay type: functional
SGC-7901 [3] = assay: Induction of apoptosis in human SGC7901 cells assessed as late apoptotic cells at 1200 nM after 48 hrs by Annexin V-FITC/propidium iodide staining based flow cytometric analysis (reference value: 1.73 to 2.85%); assay type: functional
SGC-7901 [4] = assay: Induction of mitochondrial membrane depolarization in human SGC7901 cells assessed as cells with intact mitochondrial membrane potential at 1200 nM after 48 hrs in presence of NAC by JC-1 staining based flow cytometric analysis (reference value: 98%); assay type: functional

IC50 (SMMC-7721): 3180 nM
IC50 (MGC-803): 560 nM
SMILES: COc1cc(OC)c2c(=O)c(OCCCOc3ccccc3/C=C/C(=O)/C=C/c3ccccn3)c(-c3cc(OC)c(OC)c(OC)c3)oc2c1
Activity (SGC-7901 [1]): 55.28%
Activity (SGC-7901 [2]): 51.29%
Activity (SGC-7901 [3]): 20.1 - 24.9%
Activity (SGC-7901 [4]): 97.5%
